Measured values reported in publication PMC11982498 (Redox Biology, 2025).

Legend:
[1] = system: BCL-2, BAX, Cyto-C, Cleaved-caspase 9, Cleaved-caspase 3 in hippocampus of APP/PS1 mice; assay: Western blot and immunofluorescence of apoptosis related factors in hippocampus; type: in vivo; conditions: B14 10, 20, 40 mg/kg i.p. every other day
Method: Protein samples (25–40 μg) were separated using 10 % SDS-PAGE and subsequently transferred onto PVDF membranes (0.22 μm, Servicebio, Guangzhou, China) via electro transfer. Following blocking with TBST solution (Servicebio, Guangzhou, China) containing 5 % BSA (Solarbio, Beijing, China) for approximately 60 min at room temperature, the membrane was exposed to various primary antibodies overnight at 4 °C on a rotating shaker. Then, the membranes were incubated with HRP-conjugated secondary antibody (Affinity, Changzhou, China) for 2 h. Protein bands were then detected using an ECL kit. The signal intensity of each target protein was quantified using Image J 1.8.0 software (Bio-Rad Laboratories, California, USA).
(§1) Five months old male APP/PS1 mice, weighing 25–33 g, were purchased from Guangdong Medical Laboratory Animal Center and housed in the Laboratory Animal Center of Sun Yat-sen University (Guangzhou, China) for experimentation. All procedures were approved by the Animal Care and Use Committee of Sun Yat-sen University and complied with legal requirements and national guidelines for the care and maintenance of laboratory animals (Approval No. SYSU-IACUC-2024-002032). The mice were housed in a specific pathogen-free environment with a controlled temperature of 22 ± 1 °C and a 12-h dark/light cycle. […]

bEnd.3 = assay: MTT cytotoxicity assay, bEnd.3; type: cell-based; conditions: BEND3; incubation for 48 h
APP/PS1 transgenic mice [2] = assay: Novel object recognition (NOR); type: in vivo; conditions: B14 10, 20, 40 mg/kg i.p. every other day
Source text: as §1, with “cycle. The mice were fed with a standard diet, and 30 mice were randomly divided into 6 groups (N = 5). Compound B14 was dissolved in saline and administered at doses of 10, 20, or 40 mg/kg.” for “cycle.”
(§2) The spatial memory and learning abilities of the mice were assessed using Morris water maze (MWM), novel object recognition (NOR) and nesting experiments (NBT). The anxiety and depressive behaviors were evaluated through the open field test (OFT) and elevated plus maze (EPM). […]
The novel object recognition (NOR) test evaluates mice's memory for familiar objects and their exploration of novel objects. […] The time spent exploring each object was recorded. The mice's learning and memory abilities were assessed by calculating the preference index (PI) using the formula PI = tB / (tA1 + tB).

[3] = system: BAX gene transcription in SH-SY5Y cells; assay: Real-time RT-PCR in 25 μM Aβ1-42 cell model, BAX; type: cell-based, human
Method: SH-SY5Y cells were treated with or without B14, and total RNA was subsequently isolated and purified. Reverse transcription was performed using a cDNA synthesis kit. The relative transcription levels of the genes were evaluated through quantitative real-time PCR using the SYBR Green-based method, as described in the Supplementary Date. Details regarding the primer sequences and the raw data can be found in Table S7 and Table S8.
^a -∆∆Ct = -[(Ct value of genes in treated sample - Ct value of genes in control) - (Ct value of β-actin in treated sample - Ct value of β-actin in control)]. ^b F: The relative expression fold.
Experiment 2: The Ct values of BCL-2 and Bax in 25 μM Aβ1-42 model with different concentration of B14.
Total RNA was extracted from cells and mice liver tissue using RNAiso Plus (Takara, 9109, Japan). Following sample homogenization, chloroform was added, and the solution was allowed to have phase separation into an upper aqueous layer (containing RNA), an interphase, and a lower organic layer (containing DNA and proteins). RNA was precipitated from the aqueous phase using isopropanol, while DNA was precipitated from the aqueous-organic interphase using ethanol. Complementary DNA (cDNA) was synthesized using the One-Step RT-PCR Kit (Takara, Cat#639503, Japan).
Quantitative real-time polymerase chain reaction (qRT-PCR) was performed using the 2× RealStar SYBR Mixture (GenStar, Cat# A301-10, Guangzhou, China) on a LightCycler 480 II real-time PCR system (Roche, USA). Data were analyzed using the 2^−ΔΔCt method. Actin served as the internal control, and relative mRNA levels were normalized accordingly.

[4] = system: BCL-2 (BCL-2 IM) (DNA, i motif) CAGCCCCGCTCCCGCCCCCTTCCTCCCGCGCCCGCCCCT; assay: CD melting, 287 nm; conditions: K+ 100 mM KCl plus potassium phosphate; BPES buffer, pH 5.5; 20 μM B14 (DNA 1, 2 or 5 μM, prints disagree)
[5] = system: bio-HRAS (DNA, i motif) CGCCCGTGCCCTGCGCCCGCAACCCGA; assay: SPR; conditions: K+ 100 mM; 20 mM MES, pH 5.5, 25 °C
APP/PS1 transgenic mice [6] = assay: Open field test (OFT); type: in vivo; conditions: B14 10, 20, 40 mg/kg i.p. every other day
Source text: Five months old male APP/PS1 mice, weighing 25–33 g, were purchased from Guangdong Medical Laboratory Animal Center and housed in the Laboratory Animal Center of Sun Yat-sen University (Guangzhou, China) for experimentation. All procedures were approved by the Animal Care and Use Committee of Sun Yat-sen University and complied with legal requirements and national guidelines for the care and maintenance of laboratory animals (Approval No. SYSU-IACUC-2024-002032). The mice were housed in a specific pathogen-free environment with a controlled temperature of 22 ± 1 °C and a 12-h dark/light cycle. The mice were fed with a standard diet, and 30 mice were randomly divided into 6 groups (N = 5). Compound B14 was dissolved in saline and administered at doses of 10, 20, or 40 mg/kg. APP/PS1 male mice were grown until 6 months of age, and then injected intraperitoneally with compound B14 every other day for 60 days. Behavioral experiments were then conducted, and tissue specimens were collected for biochemical analysis.
as §2, with “(EPM). Detailed experimental procedures are provided in the supplementary information.” for “(EPM).”

[7] = system: F-BCL-2 (BCL-2 IM) (DNA, i motif) CAGCCCCGCTCCCGCCCCCTTCCTCCCGCGCCCGCCCCT; assay: MST, Hill fit; conditions: K+ 100 mM KCl plus potassium phosphate; BPES buffer (30 mM phosphate, 1 mM EDTA), pH 5.5

O=C(CCN1CCOCC1)Nc1ccc2c(c1)c(=O)c1cc(NC(=O)CCN3CCOCC3)ccc1n2-c1ccc2occc2c1 [Compound B14]
expression level of BCL-2 in hippocampus [1]: effectively increased the expression level of BCL-2 | expression levels of pro-apoptotic factors in hippocampus [1]: decreased the expression levels of BAX, Cyto-C, Cleaved-caspase 9 and Cleaved-caspase 3 | IC50 (bEnd.3): > 100 µM | times to touch new objects and index of preference (NOR) (APP/PS1 transgenic mice [2]): significantly increased | -∆∆Ct, BAX ([3]; 25 μM Aβ1-42 + 6.25 μM B14): -1.71 | F = 2^-∆∆Ct (relative expression fold), BAX ([3]; 25 μM Aβ1-42 + 6.25 μM B14): 3.23 | -∆∆Ct, BAX ([3]; 25 μM Aβ1-42 + 12.5 μM B14): -1.09 | F = 2^-∆∆Ct (relative expression fold), BAX ([3]; 25 μM Aβ1-42 + 12.5 μM B14): 2.13 | -∆∆Ct, BAX ([3]; 25 μM Aβ1-42 + 25 μM B14): -0.80 | F = 2^-∆∆Ct (relative expression fold), BAX ([3]; 25 μM Aβ1-42 + 25 μM B14): 1.71 | ΔTm [4]: 11.26 °C | KD [5]: > 50 µM | range and duration of activity (OFT) (APP/PS1 transgenic mice [6]): significant improvement in the range and duration of activity | KD [7]: 1.06 µM
